Laboratory results as given in paper PMC2033546, “Effects of somatostatin analogue RC-160 and bombesin/gastrin-releasing peptide antagonists on the growth of human small-cell and non-small-cell lung carcinomas in nude mice” (British Journal of Cancer, 1994).
Bridges are numbered along the chain shown (N, C = ends). Where no end group is shown, it is not given here.

Legend:
human SCLC cell line H69 = test: [3H]Thymidine incorporation assay in H69 cells; assay type: cell-based; details: 3 days; for [3H]thymidine incorporation into DNA of H69 cells (in words): RC-160 0.001 to 10.0 µg/ml, 5 days, RC-3005 or RC-3009 5.0 and 25.0 µg/ml; for [3H]Thymidine incorporation: Table V, mean s.e.
Text: (§1) Br. J. Cancer (1994). 70, 886 892 ? Macmillan Press Ltd.. […] Bombesin GRP antagonists. […] Lung carcinoma is the leading cause of cancer-related deaths in the western world. It is estimated that in 1992 there were approximately 168,000 new cases of lung cancer in the US and that about 146,000 deaths occurred from this disease (Boring et al., 1992). […] The growth factors such as bombesin/gastrin-releasing pep- tide (GRP), epidermal growth factor, (EGF), transforming growth factor a (TGF-x) and insulin-like growth factor I(IGF-I) appear to play a role in the proliferation and pro- gression of lung cancer (Cuttitta et al., 1985; Veale et al., 1987; Minuto et al., 1988; Siegfried & Owens, 1988; Macaulay et al., 1990; Tateishi et al., 1991; Damstrup et al., 1992; Sethi & Rozengurt, 1992; Rabiasz et al., 1992; Moody & Cuttitta, 1993). […] Tpi is 2,3,4,9-tetrahydro- Correspondence: A.V. Schally (151). VA Medical Center, 1601 Per- dido Street. New Orleans, LA 70146. USA. Received 1 March 1994; and in revised form 5 July 1994. Br. J. Cancer (1994), 70, 886-892 C Macmillan Press Ltd., 1994 PEPTIDE ANALOGUES IN LUNG CANCER 8U7 lH-pyrido [3,4bjindol-3-carboxylic acid, a conformationally constrained secondary amine derivate of tryptophan and Tac is thiazolidine-4-carboxylic acid. […] Animals Male athymic NCr nulmu nude mice, approximately 6 weeks old on arrival, were obtained from the NCI (Bethesda, MD, USA) and maintained under pathogen-limited conditions. Cell lines The human SCLC cell line NCI-H69, was obtained from the American Type Cell Culture (ATCC), Rockville, MD, USA and the non-SCLC cell line NCI-H157, from Dr H. Oie, NCI-Navy Medical Oncology Branch, Bethesda, MD, USA. These cell lines were cultured in RPMI-1640 medium supple- mented with 4 mM L-glutamine, 50 units ml-I penicilln G sodium, SOigml-' streptomycin sulphate, 0.125pgml-' amphotericin B and 10% fetal bovine serum at 3TC in a humidified 95% air/5% carbon dioxide atmosphere. CeLs were passaged weekly and routinely monitored for myco- plasma contamination using a detection kit (Boehringer- Mannheim, Mannheim, Germany). All culture media com- ponents were purchased from Gibco (Grand Island, NY, USA). Receptor assays Preparation of membranes for receptor studies was described previously (Halmos et al., 1993). Iodinated EGF and IGF-I were purchased from Amersham (Arlington Heights, IL, USA). Radioiodination of other peptides and receptor bind- ing of EGF, IGF-I, somatostatin and bombesin/GRP were performed as previously described (Srkalovic et al., 1989; Szepeshazi et al., 1992). Complete displacement assays on tumour membranes were done only once because of the shortage of tumour material. The LIGAND PC computerised curve-fitting programme of Munson and Rodbard (1980) was used to determine the types of receptor binding, dissociation constant (Kd) values, and the maximal binding capacity (BDj) of receptors. In order to determine the specificity of the binding sites for radiolabelled EGF, IGF-I, somatostatin and bombesin to lung cancer membranes, various structuraly related and unrelated peptides were tested for their ability to inhibit the binding of the tracers. Histological procedure The histological procedures were the same as described previously (Szepeshazi et al., 1991, 1992). The number of mitotic and apoptotic cells per 1,000 cells was determined, and the percentage area of necrosis in tumour sections was examined using the point-counting method (Szepeshazi et al., 1991, 1992), in which the crossing points of an ocular net that coincide with necrosis in various sections are counted. Radiommunoassays Serum levels of growth hormone were determined by double- antibody radioimmunoassay (RIA) using materials supplied by the National Hormone and Pituitary Program of the National Institute of Diabetes and Digestive and Kidney Diseases (NIDDK).

EGF receptors = details: various cancer lines and cancer specimens; ref Liebow et al., 1992; cited from earlier work
Text: (§2) Br. J. Cancer (1994). 70, 886 892 ? Macmillan Press Ltd..

[1] = Serum gastrin radioimmunoassay in nude mice; assay type: in vivo; details: Table III, Experiment I (SCLC H-69), after treatment; double-antibody RIA; control 130.0 ? 10.8; means ? s.e.; **P < 0.01 vs control
[2] = tested on: Bombesin/GRP receptors in membranes of SCLC H69 tumours; test: Bombesin/GRP receptor binding on H69 tumour membranes after in vivo treatment; set-up: species or system human; details: for Concentration of receptors for bombesin/GRP on H69 tumours (in words): after in vivo treatment
Text: as §1, with “In order to determine the specificity of the binding sites for radiolabelled EGF, IGF-I, somatostatin and bombesin to lung cancer membranes, various structuraly related and unrelated peptides were tested for their ability to inhibit the binding of the tracers. Histological procedure The histological procedures were the same as described previously (Szepeshazi et al., 1991, 1992).” left out

[3] = tested on: IGF-I receptors in membranes of SCLC H69 tumours; test: IGF-I receptor binding on H69 tumour membranes after in vivo treatment; set-up: species or system human; details: Table IV, Experiment I (SCLC-H69), control 294, done once
Text: as §1, with “Receptor assays Preparation of membranes for receptor studies was described previously (Halmos et al., 1993). Iodinated EGF and IGF-I were purchased from Amersham (Arlington Heights, IL, USA). Radioiodination of other peptides and receptor bind- ing of EGF, IGF-I, somatostatin and bombesin/GRP were performed as previously described (Srkalovic et al., 1989; Szepeshazi et al., 1992). Complete displacement assays on tumour membranes were done only once because of the shortage of tumour material. The LIGAND PC computerised curve-fitting programme of Munson and Rodbard (1980) was used to determine the types of receptor binding, dissociation constant (Kd) values, and the maximal binding capacity (BDj) of receptors. In order to determine the specificity of the binding sites for radiolabelled EGF, IGF-I, somatostatin and bombesin to lung cancer membranes, various structuraly related and unrelated peptides were tested for their ability to inhibit the binding of the tracers. Histological procedure The histological procedures were the same as described previously (Szepeshazi et al., 1991, 1992).” left out

[4] = tested on: human SCLC cell line NCI-H69; test: Growth of H69 SCLC xenografts in nude mice; assay type: in vivo, human (xenograft in male athymic nude mice); details: for Tumour weight: antagonists 20 µg/day per animal, control 0.27 ? 0.19; for Tumour doubling time: antagonists 20 µg/day per animal s.c., control 7.5; for Growth of H69 SCLC tumours (in words): s.c. peritumorally, bombesin/GRP antagonists 20 µg per animal per day
Text: as §1

[5] = Body weight of tumour-bearing nude mice; details: Table I, Experiment I (SCLC-H69), end of experiment; control 26.3 ? 2.3; means ? s.d.
Text: Br. J. Cancer (1994). 70, 886 892 ? Macmillan Press Ltd.. […] Bombesin GRP antagonists. […] Lung carcinoma is the leading cause of cancer-related deaths in the western world. It is estimated that in 1992 there were approximately 168,000 new cases of lung cancer in the US and that about 146,000 deaths occurred from this disease (Boring et al., 1992). […] CeLs were passaged weekly and routinely monitored for myco- plasma contamination using a detection kit (Boehringer- Mannheim, Mannheim, Germany). […] The number of mitotic and apoptotic cells per 1,000 cells was determined, and the percentage area of necrosis in tumour sections was examined using the point-counting method (Szepeshazi et al., 1991, 1992), in which the crossing points of an ocular net that coincide with necrosis in various sections are counted. Radiommunoassays Serum levels of growth hormone were determined by double- antibody radioimmunoassay (RIA) using materials supplied by the National Hormone and Pituitary Program of the National Institute of Diabetes and Digestive and Kidney Diseases (NIDDK).

[6] = tested on: Somatostatin receptors in membranes of SCLC H69 tumours; test: Somatostatin receptor binding on H69 tumour membranes after in vivo treatment; set-up: species or system human; details: Table IV, Experiment I (SCLC-H69); tumour membranes after in vivo treatment; control 450; done once
Text: as §1, with “In order to determine the specificity of the binding sites for radiolabelled EGF, IGF-I, somatostatin and bombesin to lung cancer membranes, various structuraly related and unrelated peptides were tested for their ability to inhibit the binding of the tracers. Histological procedure The histological procedures were the same as described previously (Szepeshazi et al., 1991, 1992).” left out

[7] = tested on: EGF receptors in membranes of SCLC H69 tumours; test: EGF receptor binding on H69 tumour membranes after in vivo treatment; set-up: species or system human; details: Table IV, Experiment I (SCLC-H69); tumour membranes after in vivo treatment; control 278; ten-point displacement in triplicate tubes, done once
Text: as §1, with “In order to determine the specificity of the binding sites for radiolabelled EGF, IGF-I, somatostatin and bombesin to lung cancer membranes, various structuraly related and unrelated peptides were tested for their ability to inhibit the binding of the tracers. Histological procedure The histological procedures were the same as described previously (Szepeshazi et al., 1991, 1992).” left out

[8] = tested on: MIA PaCa-2 human pancreatic cancer cell line; details: ref Liebow et al., 1989; cited from earlier work
Text: as §2

IGF-I levels = details: patients with SCLC; ref Macauley et al. (1991); cited from earlier work
Text: as §2

SCLC H69 tumours = test: Histology (mitosis, apoptosis, necrosis) of SCLC H69 tumours; assay type: in vivo, human (xenograft in nude mice)
Text: as §1

[9] = Table I, Experiment I (SCLC-H69), 5 weeks s.c. peritumoral, RC-160 100 µg/day, means ? s.d., *P<0.05 vs control
[10] = Table I, Experiment I (SCLC-H69), 5 weeks, RC-160 100 µg/day
[11] = H69 SCLC xenografts, as compared with control group, RC-160 100 µg, RC-3950-II 20 µg per animal per day s.c. peritumorally, 5 weeks

## D-Trp23, D-Phe5, Leu27- GRP(14-27) [RC-3009]
Human SCLC cell line H69
  [3H]thymidine incorporation into DNA of H69 cells (in words): significantly suppressed
Human SCLC cell line H69; 1.0 µg/ml
  [3H]Thymidine incorporation: 98.4 0.8 per cent of control
Human SCLC cell line H69; 5.0 µg/ml, *P<0.05 vs control
  [3H]Thymidine incorporation: 92.7 2.0* per cent of control

## gastrin-releasing peptide (VPLPAGGGTVLTKMYPRGNHWAVGHLM; ends and bridges not checked; UniProt P07492 24-50, looked up) [GRP]
EGF receptors
  Effect on phosphorylation of EGF receptors (in words): enhance the phosphorylation of EGF receptors

## [Tpi6, Leu'3*(CH2N)Tpi'4 bombesin (6-16) [RC-3440]
[1]
  Serum gastrin: 92.7 8.2 pg ml'
[2]; Table IV, Experiment I (SCLC-H69), tumour membranes after in vivo treatment, control 420, done once
  Bombesin/GRP maximal binding capacity (Bmax): 255 fmol mg-'protein
[2]
  Concentration of receptors for bombesin/GRP on H69 tumours (in words): markedly dereased
[3]
  IGF-I maximal binding capacity (Bmax): 255 fmol mg' protein
[4]; Table I, Experiment I (SCLC-H69), 5 weeks s.c. peritumoral, RC-160 100 µg/day, RC-3440, RC-3095, RC-3950-II 20 µg/day per animal, control 249.7 ? 182.3, means ? s.d., ten animals per group, *P<0.05 vs control
  Tumour volume, final: 74.1 mm³
[4]; [9]
  Tumour weight: 0.076 ± 0.04* g
[4]; [10]
  Tumour doubling time: 12.1 days
[4]; RC-160 100 µg, 5 weeks
  Growth of H69 SCLC tumours (in words): inhibited the growth of H69 SCLC tumours
[5]
  Body weight: 26.2 ± 1.3 g
[6]
  Somatostatin maximal binding capacity (Bmax): 501 fmol mg-'protein
[7]
  EGF maximal binding capacity (Bmax): 134 fmol mg' protein

## somatostatin: native peptide somatostatin (AGCKNFFWKTFTSC; disulfide 3-14; ends not checked; UniProt P61278 103-116, looked up) [reference compound]
[8]
  Effect on EGF-stimulated cell growth (in words): reversed the stimulatory effect of EGF
  Effect on EGF-stimulated phosphorylation of the tyrosine kinase domain of the EGF receptors (in words): reversed the stimulatory effect of EGF

## His(Bz)2D, D-Trp23, D-Phe2, Leu'- GRP(14-27) [RC-3005]
Human SCLC cell line H69
  [3H]thymidine incorporation into DNA of H69 cells (in words): significantly suppressed
Human SCLC cell line H69; 1.0 µg/ml
  [3H]Thymidine incorporation: 100.0 2.0 per cent of control

## octreotide
IGF-I levels
  IGF-I levels (in words): reduced IGF-I levels

## [D-Phe6, Leu'3*(CH,N)Tac'1 bombesin (6-14) [RC-3950-II]
SCLC H69 tumours; SCLC H69 tumours, point-counting method, differences from control not significant statistically
  Extent of necrosis (in words): less exten- sive
SCLC H69 tumours; Table II, Experiment I (SCLC H69), apoptotic cells per 1,000 cells, control 35.4 ? 2.6, means ? s.e.
  Apoptotic index: 41.5
SCLC H69 tumours; Table II, Experiment I (SCLC H69), mitotic cells per 1,000 cells, control 37.9 ? 2.9, means ? s.e., *P < 0.05 vs control
  Mitotic index: 49.8
[2]
  Concentration of receptors for bombesin/GRP on H69 tumours (in words): reduced to non-detectable levels
[3]
  IGF-I maximal binding capacity (Bmax): 226 fmol mg' protein
[4]; [11]
  Reduction in tumour volumes: more than 80%
  Reduction in tumour weights: more than 80%
[4]; [9]
  Tumour weight: 0.03 0.03* g
[4]; [10]
  Tumour doubling time: 16.8 days
[4]; RC-160 100 µg, 5 weeks
  Growth of H69 SCLC tumours (in words): greatest inhibitory effect
[6]
  Somatostatin maximal binding capacity (Bmax): 390 fmol mg-'protein
[7]
  EGF maximal binding capacity (Bmax): 93 fmol mg' protein
